# Results published in ChEMBL document CHEMBL1127439, “Structure-activity relationship studies of central nervous system agents. 13. 4-[3-(Benzotriazol-1-yl)propyl]-1-(2-methoxyphenyl)piperazine, a new putative 5-HT1A receptor antagonist, and its analogs” (J Med Chem, 1994).
# Assays:
# Mus musculus [1] = experiment: Effect on 8-OH-DPAT-induced hypothermia in mice (5 mg/kg) at intraperitoneal dosage of 4 mg/kg of compound after 60 mins; format: functional
# Mus musculus [2] = experiment: Effect on body temperature in mice at intraperitoneal dosage of 8 mg/kg, (compound administered 30 min before the test) after 30 min; format: functional
# Rattus norvegicus [3] = experiment: Tested for the effect on 8-OH-DPAT-induced lower lip retraction (LLR) in rat at dosage of 16 mg/kg; format: functional
# Rattus norvegicus [4] = experiment: Tested for the effect on 8-OH-DPAT-induced lower lip retraction (LLR) in rat at dosage of 2 mg/kg; format: functional
# Mus musculus [5] = experiment: Effect on body temperature in mice at intraperitoneal dosage of 8 mg/kg, (compound administered 30 min before the test) after 75 min; format: functional
# Rattus norvegicus [6] = experiment: Tested for the effect on 8-OH-DPAT-induced lower lip retraction (LLR) in rat at dosage of 8 mg/kg; format: functional
# Mus musculus [7] = experiment: Effect on body temperature in mice at intraperitoneal dosage of 4 mg/kg, (compound administered 30 min before the test) after 30 min; format: functional
# Mus musculus [8] = experiment: Effect on 8-OH-DPAT-induced hypothermia in mice (5 mg/kg) at intraperitoneal dosage of 8 mg/kg of compound after 30 mins; format: functional
# Mus musculus [9] = experiment: Effect on 8-OH-DPAT-induced hypothermia in mice (5 mg/kg) at intraperitoneal dosage of 8 mg/kg of compound after 45 mins; format: functional
# Rattus norvegicus [10] = experiment: Tested for the effect on 8-OH-DPAT-induced behavior in reserpine pretreated rat against flat body posture at dosage of 2 mg/kg; format: functional
# Rattus norvegicus [11] = experiment: Tested for the effect on 8-OH-DPAT-induced behavior in reserpine pretreated rat against flat body posture at dosage of 8 mg/kg; format: functional
# Mus musculus [12] = experiment: Effect on 8-OH-DPAT-induced hypothermia in mice (5 mg/kg) at intraperitoneal dosage of 2 mg/kg of compound after 15 mins; format: functional
# Mus musculus [13] = experiment: Effect on body temperature in mice at intraperitoneal dosage of 8 mg/kg, (compound administered 30 min before the test) after 45 min; format: functional
# Rattus norvegicus [14] = experiment: Tested for the induction of lower lip retraction (LLR) by the investigated compounds in rat at dosage of 2 mg/kg; format: functional
# Rattus norvegicus [15] = experiment: Tested for the induction of lower lip retraction (LLR) by the investigated compounds in rat at dosage of 4 mg/kg; format: functional
# Mus musculus [16] = experiment: Effect on body temperature in mice at intraperitoneal dosage of 2 mg/kg, (compound administered 30 min before the test) after 45 min; format: functional
# [17] = target: Serotonin 2 (5-HT2) receptor (Rattus norvegicus, UniProt P30994+P08909+P14842); experiment: Tested in vitro for receptor binding affinity against 5-hydroxytryptamine 2 receptor using radioligand [3H]ketanserin; format: protein assay
# Mus musculus [18] = experiment: Effect on body temperature in mice at intraperitoneal dosage of 4 mg/kg, (compound administered 30 min before the test) after 75 min; format: functional
# Mus musculus [19] = experiment: Effect on body temperature in mice at intraperitoneal dosage of 2 mg/kg, (compound administered 30 min before the test) after 90 min; format: functional
# Mus musculus [20] = experiment: Effect on 8-OH-DPAT-induced hypothermia in mice (5 mg/kg) at intraperitoneal dosage of 2 mg/kg of compound after 30 mins; format: functional
# Mus musculus [21] = experiment: Effect on body temperature in mice at intraperitoneal dosage of 2 mg/kg, (compound administered 30 min before the test) after 60 min; format: functional
# Rattus norvegicus [22] = experiment: Tested for the effect on 8-OH-DPAT-induced behavior in reserpine pretreated rat against forepaw treading at dosage of 4 mg/kg; format: functional
# Mus musculus [23] = experiment: Effect on 8-OH-DPAT-induced hypothermia in mice (5 mg/kg) at intraperitoneal dosage of 4 mg/kg of compound after 30 mins; format: functional
# Rattus norvegicus [24] = experiment: Tested for the effect on 8-OH-DPAT-induced behavior in reserpine pretreated rat against flat body posture at dosage of 4 mg/kg; format: functional
# Mus musculus [25] = experiment: Effect on body temperature in mice at intraperitoneal dosage of 2 mg/kg, (compound administered 30 min before the test) after 75 min; format: functional
# Mus musculus [26] = experiment: Effect on 8-OH-DPAT-induced hypothermia in mice (5 mg/kg) at intraperitoneal dosage of 4 mg/kg of compound after 15 mins; format: functional
# Mus musculus [27] = experiment: Effect on 8-OH-DPAT-induced hypothermia in mice (5 mg/kg) at intraperitoneal dosage of 8 mg/kg of compound after 60 mins; format: functional
# Mus musculus [28] = experiment: Effect on 8-OH-DPAT-induced hypothermia in mice (5 mg/kg) at intraperitoneal dosage of 4 mg/kg of compound after 45 mins; format: functional
# Rattus norvegicus [29] = experiment: Tested for the effect on 8-OH-DPAT-induced behavior in reserpine pretreated rat against forepaw treading at dosage of 8 mg/kg; format: functional
# Mus musculus [30] = experiment: Effect on body temperature in mice at intraperitoneal dosage of 8 mg/kg, (compound administered 30 min before the test) after 90 min; format: functional
# Rattus norvegicus [31] = experiment: Tested for the effect on 8-OH-DPAT-induced behavior in reserpine pretreated rat against forepaw treading at dosage of 16 mg/kg; format: functional
# Rattus norvegicus [32] = experiment: Tested for the effect on 8-OH-DPAT-induced behavior in reserpine pretreated rat against forepaw treading at dosage of 1 mg/kg; format: functional
# Mus musculus [33] = experiment: Effect on 8-OH-DPAT-induced hypothermia in mice (5 mg/kg) at intraperitoneal dosage of 2 mg/kg of compound after 60 mins; format: functional
# Mus musculus [34] = experiment: Effect on body temperature in mice at intraperitoneal dosage of 4 mg/kg, (compound administered 30 min before the test) after 90 min; format: functional
# Rattus norvegicus [35] = experiment: Tested for the induction of lower lip retraction (LLR) by the investigated compounds in rat at dosage of 16 mg/kg; format: functional
# [36] = target: T1, 5-hydroxytryptamine receptor 1A (Rattus norvegicus, UniProt P19327); experiment: Tested in vitro for receptor binding affinity against 5-hydroxytryptamine 1A receptor using radioligand [3H]8-OH-DPAT
# T1 sequence (P19327 whole entry): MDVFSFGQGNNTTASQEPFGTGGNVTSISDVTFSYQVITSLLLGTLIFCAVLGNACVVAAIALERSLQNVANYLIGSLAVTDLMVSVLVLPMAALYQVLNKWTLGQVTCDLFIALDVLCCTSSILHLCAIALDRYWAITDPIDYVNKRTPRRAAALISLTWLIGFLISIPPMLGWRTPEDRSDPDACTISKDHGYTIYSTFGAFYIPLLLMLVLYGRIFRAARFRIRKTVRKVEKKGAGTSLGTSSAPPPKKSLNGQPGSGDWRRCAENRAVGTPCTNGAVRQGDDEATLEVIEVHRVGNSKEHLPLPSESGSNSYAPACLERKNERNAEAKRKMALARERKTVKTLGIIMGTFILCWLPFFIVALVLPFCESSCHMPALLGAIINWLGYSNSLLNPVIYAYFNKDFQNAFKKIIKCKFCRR
# Rattus norvegicus [37] = experiment: Tested for the effect on 8-OH-DPAT-induced behavior in reserpine pretreated rat against flat body posture at dosage of 16 mg/kg; format: functional
# Mus musculus [38] = experiment: Effect on body temperature in mice at intraperitoneal dosage of 4 mg/kg, (compound administered 30 min before the test) after 45 min; format: functional
# Mus musculus [39] = experiment: Effect on body temperature in mice at intraperitoneal dosage of 8 mg/kg, (compound administered 30 min before the test) after 60 min; format: functional
# Mus musculus [40] = experiment: Effect on body temperature in mice at intraperitoneal dosage of 2 mg/kg, (compound administered 30 min before the test) after 30 min; format: functional
# Rattus norvegicus [41] = experiment: Tested for the induction of lower lip retraction (LLR) by the investigated compounds in rat at dosage of 8 mg/kg; format: functional
# Mus musculus [42] = experiment: Effect on body temperature in mice at intraperitoneal dosage of 4 mg/kg, (compound administered 30 min before the test) after 60 min; format: functional
# Mus musculus [43] = experiment: Effect on 8-OH-DPAT-induced hypothermia in mice (5 mg/kg) at intraperitoneal dosage of 2 mg/kg of compound after 45 mins; format: functional
# Rattus norvegicus [44] = experiment: Tested for the effect on 8-OH-DPAT-induced behavior in reserpine pretreated rat against forepaw treading at dosage of 2 mg/kg; format: functional
# Rattus norvegicus [45] = species: Rattus norvegicus; experiment: Selectivity is the ratio between Ki values of 5-HT2 and 5-HT1A
# Rattus norvegicus [46] = experiment: Tested for the effect on 8-OH-DPAT-induced behavior in reserpine pretreated rat against flat body posture at dosage of 1 mg/kg; format: functional
# Mus musculus [47] = experiment: Effect on 8-OH-DPAT-induced hypothermia in mice (5 mg/kg) at intraperitoneal dosage of 8 mg/kg of compound after 15 mins; format: functional
# Rattus norvegicus [48] = experiment: Tested for the effect on 8-OH-DPAT-induced lower lip retraction (LLR) in rat at dosage of 4 mg/kg; format: functional
smiles,measurement,setting,value
COc1ccccc1N1CCN(CCCCn2nc3ccccc3n2)CC1,Delta t,Mus musculus [1],1.3 °C
same,Delta t,Mus musculus [2],2.8 °C
same,LLR score,Rattus norvegicus [3],2.4
same,LLR score,Rattus norvegicus [4],2.5
same,Delta t,Mus musculus [5],2 °C
same,LLR score,Rattus norvegicus [6],2.4
same,Delta t,Mus musculus [7],0.9 °C
same,Delta t,Mus musculus [8],2.2 °C
same,Delta t,Mus musculus [9],1.6 °C
same,Behavioral score,Rattus norvegicus [10],9.3
same,Behavioral score,Rattus norvegicus [11],5.2
same,Delta t,Mus musculus [12],2.1 °C
same,Delta t,Mus musculus [13],2.5 °C
same,LLR score,Rattus norvegicus [14],0.3
same,LLR score,Rattus norvegicus [15],1
same,Delta t,Mus musculus [16],0 °C
same,Ki,[17],214 nM
same,Delta t,Mus musculus [18],0.8 °C
same,Delta t,Mus musculus [19],0.1 °C
same,Delta t,Mus musculus [20],1.9 °C
same,Delta t,Mus musculus [21],0.2 °C
same,Behavioral score,Rattus norvegicus [22],5.1
same,Delta t,Mus musculus [23],2.3 °C
same,Behavioral score,Rattus norvegicus [24],11.7
same,Delta t,Mus musculus [25],0.3 °C
same,Delta t,Mus musculus [26],2.7 °C
same,Delta t,Mus musculus [27],1.1 °C
same,Delta t,Mus musculus [28],1.8 °C
same,Behavioral score,Rattus norvegicus [29],2.4
same,Delta t,Mus musculus [30],1.4 °C
same,Behavioral score,Rattus norvegicus [31],1.3
same,Behavioral score,Rattus norvegicus [32],13.6
same,Delta t,Mus musculus [33],0.9 °C
same,Delta t,Mus musculus [34],0.8 °C
same,LLR score,Rattus norvegicus [35],1.9
same,Ki,[36],4 nM
same,Behavioral score,Rattus norvegicus [37],2.6
same,Delta t,Mus musculus [38],0.8 °C
same,Delta t,Mus musculus [39],2 °C
same,Delta t,Mus musculus [40],0.1 °C
same,LLR score,Rattus norvegicus [41],1.5
same,Delta t,Mus musculus [42],0.9 °C
same,Delta t,Mus musculus [43],1.2 °C
same,Behavioral score,Rattus norvegicus [44],5.6
same,Selectivity,Rattus norvegicus [45],54
same,Behavioral score,Rattus norvegicus [46],14.2
same,Delta t,Mus musculus [47],2.4 °C
same,LLR score,Rattus norvegicus [48],2.3
